Test results as given in ChEMBL document CHEMBL1151104, “Mollinedine, a New Alkaloid from Mollinedia costaricensis” (J Nat Prod, 1988).
The source made the active and inactive calls. No cut-off for these calls is given here.

Tests used:
Rattus norvegicus = species on record: Rattus norvegicus; test: Inhibition of ouabain-induced myocardial arrhythmias in rat; format: functional, organism-based
Cavia porcellus = species on record: Cavia porcellus; test: Inhibition of CaCl2-induced myocardial arrhythmias in guinea pig; format: functional, organism-based

Question: How did the Activity (Rattus norvegicus) turn out when `c1cc2cc3c(cc2c(Cc2ccc4c(c2)OCO4)n1)OCO3` was run?
Answer: Active

Question: What about the Activity (Cavia porcellus) of the same compound?
Answer: Active
